This passage reports IC50 results from US7750011B2, “Diazabicyclic aryl derivatives and their medical use” (Neurosearch A/S, priority 2005, dated 2010).

The target in this assay is T1, α7-subtype of nicotinic receptors (Rattus norvegicus, UniProt Q05941).
T1 construct: Cerebral cortices from male Wistar rats (150-250 g) are homogenised; from tissue; host or cells: rat cerebral cortex membrane homogenate (male Wistar rats)
As to the kind of experiment: In vitro inhibition of 3H-α-bungarotoxine binding in rat brain. The following applies: rat cerebral cortex homogenate; 3H-α-bungarotoxine 2 nM; 2 hours at 37° C.

Structures can show the parent of a compound that is named as a salt.

T1 sequence (Q05941 23-502): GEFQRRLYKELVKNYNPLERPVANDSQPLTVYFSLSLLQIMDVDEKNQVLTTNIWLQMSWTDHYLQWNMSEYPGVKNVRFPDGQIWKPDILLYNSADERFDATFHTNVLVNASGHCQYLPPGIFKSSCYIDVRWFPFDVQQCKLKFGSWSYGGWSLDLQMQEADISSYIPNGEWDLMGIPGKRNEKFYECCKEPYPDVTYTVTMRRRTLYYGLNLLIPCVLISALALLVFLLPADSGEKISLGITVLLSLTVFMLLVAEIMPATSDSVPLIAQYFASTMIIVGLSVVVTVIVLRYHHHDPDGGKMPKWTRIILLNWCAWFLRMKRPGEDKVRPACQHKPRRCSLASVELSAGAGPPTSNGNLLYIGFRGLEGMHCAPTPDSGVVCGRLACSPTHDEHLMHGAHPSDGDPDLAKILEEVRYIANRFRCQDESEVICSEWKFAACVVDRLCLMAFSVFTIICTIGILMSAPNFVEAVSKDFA

Usually IC50 stands for the concentration at which inhibition is half-maximal. `CN1C[C@@H]2C[C@H]1CN2c1ccc(C#Cc2ccccc2)nn1` [Compound 2, 2-Methyl-5-(6-phenylethynyl-pyridazin-3-yl)-(1S,4S)-2,5-diaza-bicyclo[2.2.1]heptane fumaric acid salt] had an IC50 of 2000 nM.
